Here are results for 13 compounds from PubChem BioAssay (NCI).

Holding throughout (assay): growth of human tumour cells (NCI), 48 h
Assay [1] concerns DMS 114 small cell lung.
The subject of assay [2] is SNB-19 CNS.
Assay [3] concerns A549 NSCLC.
The test system of assay [4] is KM12 colon.
Assay [5] deals with ACHN renal.
Assay [6] relates to K-562 leukemia.
Assay [7] relates to HCC-2998 colon.
In assay [8] the test system is NCI-H522 lung.
Assay [9] relates to M19-MEL melanoma.
In assay [10] the test system is KM20L2 colon.
The subject of assay [11] is DLD-1 colon.
Assay [12] has as its system MDA-N.
Assay [13] concerns BT-549 breast.

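48-hour exposure; five concentrations; linearly interpolated endpoints. TGI marks complete inhibition of growth.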 Where only a bound is given, the exact number is not on record here.

In the case of `c1ccc(OCCSCCCCCCCCCCSCCOc2ccccc2)cc1`, the TGI in assay [1], in [2], in [3], in [4], in assay [5] and in assay [6] was > 100 µM each time. In addition, the TGI in assay [7], in [8], in [9] and in [10] was > 100 µM in each case.

For `Cc1cc(=O)[nH]c(NNC(C#N)c2ccc([N+](=O)[O-])cc2)n1` (centres undefined), the TGI in [11], in assay [1], in assay [3], in assay [4], in [5] and in assay [6] was > 100 µM in each case. Also, the TGI in assay [8], in [9] and in assay [10] was > 100 µM throughout.

As for `C/C(=N/O)c1ccc2c(c1)C(=NO)c1cc(/C(C)=N/O)ccc1-2`, the TGI came to 52.8 µM in assay [11]; 53.7 µM in assay [1]; 26.8 µM in [2]; 68.6 µM in assay [3]; 32.9 µM in assay [4]; 20.8 µM in assay [5]. The TGI in assay [6] was > 100 µM; in assay [7], 33.9 µM; in assay [8], 53.3 µM; in [9], 64.8 µM; in [10], 32.3 µM.

Take `CCOC(=O)/C(C#N)=C/N(CC)/N=C/c1ccccc1`: the TGI in assay [2], in assay [3], in assay [4], in assay [5], in assay [6] and in assay [7] was > 100 µM each time. For the same compound, the TGI in assay [12], in [8] and in [13] was > 100 µM in each case.

For the compound `[N-]=[N+]=C(C(=O)C(=[N+]=[N-])C(=O)c1ccccc1)C(=O)c1ccccc1`, the TGI in [2], in assay [3], in [4], in [5], in assay [6] and in assay [7] was > 100 µM each time. The TGI in [12], in assay [8] and in assay [13] was > 100 µM each time.

Regarding `O=C1CC2(CCNCC2)C(=O)N1N1CCOCC1`, the TGI in assay [2], in assay [3], in assay [4], in [5], in assay [6] and in assay [7] was > 100 µM in each case. For the same compound, the TGI in assay [12], in [8] and in assay [13] was > 100 µM each time.

Take `COc1ccc(-c2c3ccccc3c(-c3ccc(OCCCCCBr)cc3)c3ccccc23)cc1`: the TGI in [11], in [1], in assay [2], in assay [3], in [4] and in [5] was > 100 µM throughout. Moreover, the TGI in [6], in [7], in assay [8], in assay [9] and in assay [10] was > 100 µM in each case.

For `O=C1C=C(N2CCN(c3ccccn3)CC2)C(=O)c2c(O)ccc(O)c21`, the TGI in [2] was 78.6 µM; in assay [3] it was 40.7 µM; in assay [4], > 46.4 µM; in [5], > 56.2 µM; in [6] it was 36.2 µM; in [7] it was 43.1 µM. The TGI in assay [12] was 5.76 µM; in [8], 41.2 µM; in [13], > 100 µM.

Regarding `CC(C)(C)c1ccc(-c2nnc(-c3cc(C#N)cc(-c4nnc(-c5ccc(C(C)(C)C)cc5)o4)c3)o2)cc1`, the TGI in assay [2], in assay [3], in assay [4], in [5], in assay [6] and in assay [7] was > 100 µM throughout. Further, the TGI in assay [12], in [8] and in assay [13] was > 100 µM in each case.

In the case of `CCOc1ccc(-c2oc(/C=N/NS(=O)(=O)c3ccc(C)cc3)c([N+](=O)[O-])c2-c2ccc(OCC)cc2)cc1`, the TGI in [11] turned out to be 17.6 µM; in assay [1], 12 µM; in assay [2], 43.1 µM; in assay [3], 65.6 µM; in [4], 25.3 µM; in [5], 23.7 µM. Also, the TGI in [6] was > 56.3 µM; in assay [7] it was 31.1 µM; in assay [8] it was 20.6 µM; in assay [9], 13.3 µM; in assay [10], 31.9 µM.

As for `CC1(C)CCC2(C(=O)OC3OC(CO)C(O)C(O)C3O)CCC3(CO)C(=CCC4C5(C)CC(O)C(O)C(C)(C(=O)OC6OC(CO)C(O)C(O)C6O)C5CCC43C)C2C1` (centres undefined), the TGI in assay [2], in [3], in assay [4], in [5], in [6] and in assay [7] was > 100 µM each time. Besides, the TGI in assay [12], in [8] and in assay [13] was > 100 µM throughout.

Consider `CC(=O)Nc1ccc(C(=O)N2N=C(C)/C(=C/c3ccc(O)cc3)C2=O)cc1`, for which the TGI in [11], in assay [1], in assay [2], in assay [3], in [4] and in [5] was > 100 µM each time. The TGI in assay [6], in assay [7], in [8] and in assay [9] was > 100 µM each time.

Regarding `O=S1(=O)CCN(c2ccccc2CC(c2c[nH]c3ccccc23)c2c[nH]c3ccccc23)CC1`, the TGI in assay [11] is 21.4 µM; in assay [1] it was > 100 µM; in assay [2], > 100 µM; in [3] it was > 78.2 µM; in assay [4], 13.5 µM; in [5], > 91.7 µM. The TGI in assay [6] is 45.1 µM; in assay [7], 8.09 µM; in [12], 18.2 µM; in assay [8], 17.2 µM; in assay [9] it was 23 µM; in [13], 37.3 µM. The compound also yielded a TGI in assay [10] of 27.8 µM.
